The source of these data is patent US11464783B2, “Heterocyclic compounds” (Aligos Therapeutics, Inc., priority 2019, dated 2022).

Bounds are passed on as bounds.

The test system of this assay is HBV. The experiment in a line: HBV-DNA Antiviral Assay Using HepG2.117 Cells. The format is cell-based. Particulars: Hepatitis B virus, HepG2.117, 96 h, intracellular HBV DNA by qPCR, day 4. As to the method:
The following assay procedure describes the HBV antiviral assay, using HepG2.117 cells, which carry a stably integrated genotype D HBV genome under the control of a Tet-off promoter, and intracellular HBV DNA quantification as endpoint. Cell viability is assessed in parallel by measuring the intracellular ATP content using ATPlite (Perkin Elmer).
On day 0, HepG2.117 cells (which are maintained in routine cell culture with doxycycline present in the medium at a final concentration of 1 μg/mL) were seeded in 96-well plates (white with clear bottom) at a density of 2.0×10^4 cells/well (0.1 mL/well) in medium without doxycycline to induce pgRNA transcription and subsequent formation of HBV particles. The cells were incubated at 37° C. and 5% CO2.
On day 1, medium was removed from each well, the test articles were diluted in culture medium without doxcycyline and 100 μL was added to cell culture wells (9 concentrations, 4-fold dilution). For each plate, 6 untreated (merely DMSO) wells were included. The final concentration of DMSO in the culture medium was 2%. Each plate was prepared in duplicate (one for HBV DNA extraction, one for ATPlite measurement). The cells were incubated at 37° C. and 5% CO2 for 3 days.
On day 4, cell viability was assessed using ATPlite and cell lysates were prepared for HBV DNA extraction and subsequent quantification by qPCR.
Medium was removed from each well and 100 μL of 0.33% NP-40 in H2O was added to each well. Plates were sealed, incubated at 4° C. for 5 mins, vortexed extensively and centrifuged briefly. Next, 35 μL of lysate was added to 65 μL QuickExtract DNA Extraction Solution (Epicentre) in a PCR plate for each well. PCR plate was incubated at 65° C. for 6 mins, 98° C. for 2 mins and finally cooled to 4° C. HBV DNA was then quantified by qPCR with HBV-specific primers and probes as specified in Table 2 using the Bio-Rad SSOAdvanced Universal Probes Supermix on a CFX96 machine (Bio-Rad). The PCR cycle program consisted of 95° C. for 3 mins, followed by 40 cycles at 95° C. for 10 sec and 60° C. for 30 sec.
A DNA standard was prepared by dilution of an IDT gBlock corresponding to the amplicon with concentrations ranging from 10^2 to 10^8 copies/input (i.e. per 4 μL) and used to generate a standard curve by plotting Cq values vs. HBV DNA standard concentration. The quantity of HBV DNA in each sample was determined by interpolating from the standard curve.
Cell viability was calculated as follows: % Cell viability=(luminescence value of test sample)/(average luminescence value of 2% DMSO control)×100%. HBV DNA inhibition was calculated as follows: 100−(HBV DNA copy number of test sample)/(average HBV DNA copy number of 2% DMSO control)×100%. No normalization to entecavir was required due to the excellent dynamic window of this assay. The CC50, EC so and EC90 values were determined by dose-response curves fitted by GraphPad Prism using “log (agonist) vs. response—Variable slope”.
A general note: In qPCR the cycle at which signal appears reflects the starting amount.
As a reminder, the EC50 is the concentration needed to bring the measured effect to its halfway point. Lower therefore signals an effect from little substance. As to `O=C(c1cc(F)cc(Cl)c1)N1CCS(=O)(=O)C(c2cccs2)C1` (centres unmarked) [Compound 13a, (3-chloro-5-fluoro-phenyl)-[1,1-dioxo-2-(2-thienyl)-1,4-thiazinan-4-yl]methanone], the concentration for a half-maximal effect (EC50) is 500 to 5000 nM.

Take `Cn1cnc(-c2ccc(C3CN(C(=O)Nc4ccc(F)c(Cl)c4)CCS3(=O)=O)s2)c1` (centres unmarked) [Compound 15a, N-(3-chloro-4-fluoro-phenyl)-2-[5-(1-methylimidazol-4-yl)-2-thienyl]-1,1-dioxo-1,4-thiazinane-4-carboxamide]: the EC50 fell in the range of 500 to 5000 nM.

Compound `N=S1(=O)CCN(C(=O)Nc2ccc(F)c(Cl)c2)CC1c1cccs1` (centres unmarked) [Compound 17, N-(3-chloro-4-fluoro-phenyl)-1-imino-1-oxo-2-(2-thienyl)-1,4-thiazinane-4-carboxamide] yielded an EC50 of 500 to 5000 nM.

`C[C@H]1CS(=O)(=O)[C@H](c2cccs2)CN1C(=O)Nc1ccc(F)c(Cl)c1` [Compound 20, (2S,5S)—N-(3-chloro-4-fluoro-phenyl)-5-methyl-1,1-dioxo-2-(2-thienyl)-1,4-thiazinane-4-carboxamide] returned an EC50 of 500 to 5000 nM.

Compound `C[C@H]1CS(=O)(=O)[C@@H](c2cccs2)CN1C(=O)Nc1ccc(F)c(Cl)c1` [Compound 21, (2R,5S)—N-(3-chloro-4-fluoro-phenyl)-5-methyl-1,1-dioxo-2-(2-thienyl)-1,4-thiazinane-4-carboxamide] had an EC50 of 100 to 500 nM.

The compound `C[C@@H]1CS(=O)(=O)[C@H](c2cccs2)CN1C(=O)Nc1ccc(F)c(Cl)c1` [Compound 23, (2S,5R)-N-(3-chloro-4-fluorophenyl)-5-methyl-1,1-dioxo-2-(thiophen-2-yl)-1,4-thiomorpholine-4-carboxamide] displayed a 50% effective concentration (EC50) of 500 to 5000 nM.

Consider `C[C@@H]1CS(=O)(=O)[C@@H](c2cccs2)CN1C(=O)c1ccc(Br)c(Cl)c1` [Compound 25, (4-bromo-3-chloro-phenyl)-[(2R,5R)-5-methyl-1,1-dioxo-2-(2-thienyl)-1,4-thiazinan-4-yl]methanone], for which the EC50 lay in the range of 500 to 5000 nM.

`C[C@@H]1CS(=O)(=O)[C@H](c2cccs2)CN1C(=O)c1ccc(Br)c(Cl)c1` [Compound 26, (4-bromo-3-chloro-phenyl)-[(2S,5R)-5-methyl-1,1-dioxo-2-(2-thienyl)-1,4-thiazinan-4-yl]methanone] yielded an EC50 of 500 to 5000 nM.

`O=C(c1ccc(Br)c(Cl)c1)N1CCS(=O)(=O)C(c2nccs2)C1` (centres unmarked) [Compound 27, (4-bromo-3-chloro-phenyl)-(1,1-dioxo-2-thiazol-2-yl-1,4-thiazinan-4-yl)methanone] registered an EC50 of 100 to 500 nM.

In turn, `O=C(c1ccc(Br)c(Cl)c1)N1CCS(=O)(=O)C(c2nnco2)C1` (centres unmarked) [Compound 28, (4-bromo-3-chloro-phenyl)-[2-(1,3,4-oxadiazol-2-yl)-1,1-dioxo-1,4-thiazinan-4-yl]methanone] registered an EC50 of 500 to 5000 nM.

In turn, `Cc1cnc(C2CN(C(=O)c3ccc(Br)c(Cl)c3)CCS2(=O)=O)s1` (centres unmarked) [Compound 29, (4-bromo-3-chloro-phenyl)-[2-(5-methylthiazol-2-yl)-1,1-dioxo-1,4-thiazinan-4-yl]methanone] gave an EC50 of no more than 100 nM.

On to `O=C(c1ccc(Br)c(Cl)c1)N1CCS(=O)(=O)C(c2ncc(Cc3ccccc3)s2)C1` (centres unmarked) [Compound 30, (2-(5-benzylthiazol-2-yl)-1,1-dioxidothiomorpholino)(4-bromo-3-chlorophenyl)methanone], for which the EC50 is 100 to 500 nM.

Compound `O=C(c1ccc(Br)c(Cl)c1)N1CCS(=O)(=O)C(c2nc(Cc3ccccc3)cs2)C1` (centres unmarked) [Compound 31, (2-(4-benzylthiazol-2-yl)-1,1-dioxidothiomorpholino)(4-bromo-3-chlorophenyl)methanone] returned an EC50 of 100 to 500 nM.

In the case of `O=C(c1ccc(Cl)c(Cl)c1)N1CCS(=O)(=O)C(c2nccs2)C1` (centres unmarked) [Compound 32], the EC50 fell in the range of 500 to 5000 nM.

The compound `C[C@@]1(C(=O)NCc2ccccc2)CN(C(=O)c2ccc(Br)c(Cl)c2)CCS1(=O)=O` [Compound 33a] displayed an EC50 of 100 to 500 nM.

`C[C@]1(C(=O)NCc2ccccc2)CN(C(=O)c2ccc(Br)c(Cl)c2)CCS1(=O)=O` [Compound 33b] yielded an EC50 of 500 to 5000 nM.

Compound `CC1(c2nccs2)CN(C(=O)c2ccc(Br)c(Cl)c2)CCS1(=O)=O` (centres unmarked) [Compound 34] had an EC50 of 500 to 5000 nM.

In turn, `O=C(c1ccc(Br)c(Cl)c1)N1CCS(=O)(=O)[C@](F)(C(=O)NCc2ccccc2)C1` [Compound 35a] returned an EC50 of no more than 100 nM.

In turn, `O=C(c1ccc(Br)c(Cl)c1)N1CCS(=O)(=O)[C@@](F)(C(=O)NCc2ccccc2)C1` [Compound 35b] returned an EC50 of 500 to 5000 nM.

`O=C(c1ccc(Br)c(Cl)c1)N1CCS(=O)(=O)[C@](F)(c2ncc(Cc3ccccc3)s2)C1` [Compound 37a, (4-bromo-3-chloro-phenyl)-[(2S)-2-(5-benzylthiazol-2-yl)-2-fluoro-1,1-dioxo-1,4-thiazinan-4-yl]methanone]: the EC50 was no more than 100 nM.

In turn, `O=C(c1ccc(Br)c(Cl)c1)N1CCS(=O)(=O)[C@@](F)(c2ncc(Cc3ccccc3)s2)C1` [Compound 37b, (4-bromo-3-chloro-phenyl)-[(2R)-2-(5-benzylthiazol-2-yl)-2-fluoro-1,1-dioxo-1,4-thiazinan-4-yl]methanone] returned an EC50 of 500 to 5000 nM.

On to `O=C(c1ccc(Br)c(Cl)c1)N1CCS(=O)(=O)[C@](F)(C(=O)NCCc2ccccc2)C1` [Compound 38a], for which the EC50 is greater than 5000 nM.

For `O=C(c1ccc(Br)c(Cl)c1)N1CCS(=O)(=O)[C@@](F)(C(=O)NCCc2ccccc2)C1` [Compound 38b], the EC50 lay in the range of 500 to 5000 nM.

`O=C(c1ccc(Br)c(Cl)c1)N1CCS(=O)(=O)[C@@](F)(c2ncc(-c3ccccc3)s2)C1` [Compound 39] registered an EC50 of 500 to 5000 nM.

For the compound `N#Cc1cc(C(=O)N2CCS(=O)(=O)[C@](F)(c3ncc(Cc4ccccc4)s3)C2)ccc1Br` [Compound 40a], the EC50 fell in the range of 500 to 5000 nM.

Consider `N#Cc1cc(C(=O)N2CCS(=O)(=O)[C@@](F)(c3ncc(Cc4ccccc4)s3)C2)ccc1Br` [Compound 40b], for which the EC50 was no more than 100 nM.

`C[C@H](c1ccccc1)c1cnc([C@@]2(F)CN(C(=O)c3ccc(Br)c(Cl)c3)CCS2(=O)=O)s1` [Compound 41a] gave an EC50 of no more than 100 nM.

As to `C[C@@H](c1ccccc1)c1cnc([C@@]2(F)CN(C(=O)c3ccc(Br)c(Cl)c3)CCS2(=O)=O)s1` [Compound 41b], the EC50 is no more than 100 nM.

On to `C[C@H](c1ccccc1)c1cnc([C@]2(F)CN(C(=O)c3ccc(Br)c(Cl)c3)CCS2(=O)=O)s1` [Compound 41c], for which the EC50 was 500 to 5000 nM.

As for `C[C@@H](c1ccccc1)c1cnc([C@]2(F)CN(C(=O)c3ccc(Br)c(Cl)c3)CCS2(=O)=O)s1` [Compound 41d], the EC50 is 500 to 5000 nM.

Compound `C[C@@H](c1cnc([C@@]2(F)CN(C(=O)c3ccc(Br)c(C#N)c3)CCS2(=O)=O)s1)c1ccccc1F` [Compound 43a] had an EC50 of no more than 100 nM.

In turn, `C[C@H](c1cnc([C@@]2(F)CN(C(=O)c3ccc(Br)c(C#N)c3)CCS2(=O)=O)s1)c1ccccc1F` [Compound 43b] had an EC50 of no more than 100 nM.

The compound `C[C@@H](c1cnc([C@]2(F)CN(C(=O)c3ccc(Br)c(C#N)c3)CCS2(=O)=O)s1)c1ccccc1F` [Compound 43c] had an EC50 of 500 to 5000 nM.

Take `C[C@H](c1cnc([C@]2(F)CN(C(=O)c3ccc(Br)c(C#N)c3)CCS2(=O)=O)s1)c1ccccc1F` [Compound 43d]: the concentration giving a half-maximal response (EC50) was 500 to 5000 nM.

With `N#Cc1cc(C(=O)N2CCS(=O)(=O)[C@@](F)(c3ncc(Cc4ccccc4-c4ncccn4)s3)C2)ccc1Br` [Compound 45a], the EC50 is no more than 100 nM.

`N#Cc1cc(C(=O)N2CCS(=O)(=O)[C@](F)(c3ncc(Cc4ccccc4-c4ncccn4)s3)C2)ccc1Br` [Compound 45b]: the EC50 fell in the range of 500 to 5000 nM.

As for `O=C(c1ccc(Br)c(Cl)c1)N1CCS(=O)(=O)[C@@](F)(c2ncc(Cc3ccccc3)o2)C1` [Compound 46a, (R)-(2-(5-benzyloxazol-2-yl)-2-fluoro-1,1-dioxidothiomorpholino)(4-bromo-3-chlorophenyl)methanone], the concentration giving a half-maximal response (EC50) is no more than 100 nM.

Compound `COc1ccc(Cc2cnc([C@]3(F)CN(C(=O)c4ccc(Br)c(Cl)c4)CCS3(=O)=O)s2)c(OC)c1` [Compound 49a] registered a 50% effective concentration (EC50) of 500 to 5000 nM.
